Here are results for ten compounds from patent US11414387B2, “Oxoacridinyl acetic acid derivatives and methods of use” (Stingthera, Inc., priority 2017, dated 2022).

Bounds are passed on as bounds.

One test deals with mSTING (Mus musculus, UniProt Q3TBT3). The test is described as follows: Radiometric filtration binding competition assay, mSTING.
Another test deals with hSTING-WT (Homo sapiens (Human), UniProt Q86WV6, H232R). The test is described as follows: Radiometric filtration binding competition assay, hSTING-WT.
Sequence of hSTING-WT (Q86WV6 140-379 H232R): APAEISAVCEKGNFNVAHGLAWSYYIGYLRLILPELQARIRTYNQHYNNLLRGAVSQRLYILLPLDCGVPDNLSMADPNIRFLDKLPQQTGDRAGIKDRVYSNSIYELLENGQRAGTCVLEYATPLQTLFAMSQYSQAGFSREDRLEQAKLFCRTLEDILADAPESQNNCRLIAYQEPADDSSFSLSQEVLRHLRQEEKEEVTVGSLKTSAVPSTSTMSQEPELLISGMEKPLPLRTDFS
The target of test [1] is T1, hSTING-HAQ (Homo sapiens (Human), UniProt Q86WV6, G230A/H232R/R293Q). Nature of the test: Radiometric filtration binding competition assay, hSTING-HAQ.
T1 sequence (Q86WV6 140-379 G230A/H232R/R293Q): as the sequence (Q86WV6 140-379 H232R) above, with G91A, R154Q counted along it
Protocol: A radiometric filtration binding competition assay was performed to quantify the binding affinity of compounds of the present application for the human or mouse STING protein, or associated HAQ human isoform. […] The resulting dose response was fit by non-linear regression to determine an IC50 value, from which a Ki value for each compound was extrapolated.
The resulting complexes were then filtered, dried, and scintillation fluid was added and the remaining radio signal was measured to determine the degree of compound ligand inhibition. This assay format was optimized for both the WT and HAQ isoforms of the human protein and the mouse orthologue protein.
Probe Concentration: Minimum concentration that achieved max assay window • g. Assay Format: Scintillation Proximity Bead or Filtration Binding Plate • h. […] Assay incubation times for successive incubation steps
WT-hSWAT: WT_FBA_HIS-SUMO-hSWAT IC50 (μM) (“WT”=Wild-type); HAQ-hSWAT: HAQ_FBA_HIS-SUMO-hSWAT IC50 (μM) (“HAQ”=human HAQ allele of STING protein); and WT-mSWAT: MOUSE_FBA_HIS-SUMO-mnSWAT IC50 (μM) which is the mouse isoform of STING protein.
The target of a further test is mSTING-R232 (Mus musculus, UniProt Q3TBT3). The test is described as follows: STING differential scanning fluorimetry (DSF) assay, mouse STING. The settings on record: net shift in melting temperature. (In general: In DSF a fluorescence change marks the thermal transition of the protein.)
In the next test the target is hSTING-R232 (Homo sapiens (Human), UniProt Q86WV6, H232R). The test is described as follows: STING differential scanning fluorimetry (DSF) assay, WT human STING. The settings on record: WT (R232) human STING aa140-379, net shift in melting temperature.
Sequence of hSTING-R232 (Q86WV6 140-379 H232R): as the sequence (Q86WV6 140-379 H232R) above
For test [2], the target named is T1, hSTING-HAQ. Nature of the test: STING differential scanning fluorimetry (DSF) assay, HAQ human STING. The settings on record: HAQ human STING aa140-379, net shift in melting temperature.
Protocol: A STING DSF assay was performed to determine protein thermostability shift in response to small molecule ligand binding. A STING thermostability shift assay based on differential scanning fluorimetry was used to measure (1) the net shift in melting temperature (ΔTm)between the apo and ligand-bound states of the STING protein and (2) the concentration of the thermal denaturation transition (EC50) as a surrogate measure of binding affinity (K). […] Protein in assay buffer was transferred to a 384 well plate and incubated with the hydrophobic fluorescent dye SYBR Orange. A temperature ramp was applied to the plate and the resulting dye fluorescence was plotted as a function of temperature. The first derivative of this function (dF/dT) was then used to extrapolate the melting temperature of the protein at various concentrations of compound and determine the thermal denaturation profile of a protein/compound complex.
• 1. Protein construct (affinity tag removal vs SUMO-fusion construct) • 2. Protein concentration • 3. Dye concentration • 4. Buffer • 5. Thermal ramp velocity • 6. DMSO tolerance • 7. Compound titration parameters • 8. […] 5 μM purified Target STING Protein • 3. 8 μM Sypro Orange Dye • 4. Buffer: 100 mM NaCl, 30 mM HEPES, pH 7.5 • 5. Thermal Ramp: 0.5° C./min • 6. <1% DMSO • 7. 11 point, 2 fold dilution, duplicate, 300 μM high concentrations • 8.
Another test addresses STING protein (Homo sapiens (Human), UniProt Q86WV6, H232R). The test is described as follows: Cell based reporter assay of IRF activation (IRF-luciferase), THP1-dual-KI R232. The settings on record: read-out: THP1-dual-KI R232_IRF(Luciferase)_Activity Maximum measured (%). A general note: Reporter assays use an easily measured gene product as a stand-in for the process of interest.

Sequence of STING protein (Q86WV6 whole entry H232R): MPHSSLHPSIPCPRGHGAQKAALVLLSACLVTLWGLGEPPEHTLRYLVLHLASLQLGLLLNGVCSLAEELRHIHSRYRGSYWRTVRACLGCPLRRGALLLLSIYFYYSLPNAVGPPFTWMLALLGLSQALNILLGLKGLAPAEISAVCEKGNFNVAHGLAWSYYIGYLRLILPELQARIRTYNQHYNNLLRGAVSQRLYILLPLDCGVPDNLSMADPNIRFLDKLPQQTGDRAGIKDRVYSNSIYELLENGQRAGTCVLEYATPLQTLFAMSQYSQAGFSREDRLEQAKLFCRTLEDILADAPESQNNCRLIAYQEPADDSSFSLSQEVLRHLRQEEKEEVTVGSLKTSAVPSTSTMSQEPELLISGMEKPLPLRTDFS

`O=C(O)Cn1c2cc(NC3CCCCC3)ccc2c(=O)c2ccc(Cl)c(Br)c21` [Compound 110]: the IC50 on mSTING is less than 20 µM; on hSTING-WT, less than 20 µM; on hSTING-HAQ [1] it was 20 to 100 µM. The “MOUSE DSF_6xHIS-SUMO Tm Shift (° C.)” value at mSTING-R232 is “D (“D” > 15° C.)”. On hSTING-R232, the “WT_DSF_hSWAT Tm Shift (° C.)” value is given as “D (“D” > 7° C.)”. In addition, the “HAQ_DSF_hSWAT Tm Shift (° C.)” value on hSTING-HAQ [2] is recorded as “D (“D” > 7° C.)”. For the same compound, on STING protein, the Emax is more than 50%.

Turning to `O=C(O)Cn1c2cc(C3CCCC3)ccc2c(=O)c2ccc(Cl)c(Cl)c21` [Compound 113], the IC50 is less than 20 µM on mSTING and 20 to 100 µM at hSTING-WT. Besides, the “MOUSE DSF_6xHIS-SUMO Tm Shift (° C.)” value at mSTING-R232 was “D (“D” > 15° C.)”. Further, at hSTING-R232, the “WT_DSF_hSWAT Tm Shift (° C.)” value was “C (“C” = 2-7° C,)”. For the same compound, at hSTING-HAQ [2], the “HAQ_DSF_hSWAT Tm Shift (° C.)” value was “C (“C” = 2-7° C,)”. On STING protein, the Emax is 5 to 25%.

For `O=C(O)Cn1c2cc(-c3cccc(C(F)(F)F)c3)ccc2c(=O)c2ccc(Cl)c(Cl)c21` [Compound 161], the IC50 at hSTING-WT lay in the range of 20 to 100 µM. Also, the “MOUSE DSF_6xHIS-SUMO Tm Shift (° C.)” value at mSTING-R232 is given as “D (“D” > 15° C.)”. The “WT_DSF_hSWAT Tm Shift (° C.)” value on hSTING-R232 was “B (“B” = 0-2° C.)”. Also, the “HAQ_DSF_hSWAT Tm Shift (° C.)” value on hSTING-HAQ [2] is given as “B (“B” = 0-2° C.)”. In addition, the Emax on STING protein was less than 5%.

With `COc1c(Cl)ccc2c(=O)c3ccc(C(C)(C)C)cc3n(CC(=O)O)c12` [Compound 204], the half-maximal inhibitory concentration (IC50) on mSTING was less than 20 µM; on hSTING-WT, less than 20 µM; on hSTING-HAQ [1], 20 to 100 µM. Moreover, at hSTING-R232, the “WT_DSF_hSWAT Tm Shift (° C.)” value is listed as “D (“D” > 7° C.)”. Further, the “HAQ_DSF_hSWAT Tm Shift (° C.)” value at hSTING-HAQ [2] is reported as “D (“D” > 7° C.)”. The Emax on STING protein is more than 50%.

Turning to `CSc1c(Cl)ccc2c(=O)c3ccc(C(C)(C)C)cc3n(CC(=O)O)c12` [Compound 215], the IC50 on mSTING, at hSTING-WT and at hSTING-HAQ [1] was less than 20 µM throughout. Besides, at hSTING-R232, the “WT_DSF_hSWAT Tm Shift (° C.)” value was “D (“D” > 7° C.)”. Also, the “HAQ_DSF_hSWAT Tm Shift (° C.)” value on hSTING-HAQ [2] was “D (“D” > 7° C.)”. For the same compound, the Emax on STING protein is more than 50%.

As to `O=C(O)Cn1c2cc(Nc3cnccn3)ccc2c(=O)c2ccc(Cl)c(Cl)c21` [Compound 217], the IC50 is less than 20 µM at mSTING, 20 to 100 µM at hSTING-WT and 100 to 300 µM at hSTING-HAQ [1]. The “WT_DSF_hSWAT Tm Shift (° C.)” value at hSTING-R232 is “D (“D” > 7° C.)”. On hSTING-HAQ [2], the “HAQ_DSF_hSWAT Tm Shift (° C.)” value is recorded as “D (“D” > 7° C.)”. Besides, the Emax at STING protein is more than 50%.

For `O=C(O)Cn1c2cc(Nc3ccc(F)cc3)ccc2c(=O)c2ccc(Cl)c(Cl)c21` [Compound 218], the IC50 is less than 20 µM at mSTING, less than 20 µM at hSTING-WT and 20 to 100 µM on hSTING-HAQ [1]. In addition, on mSTING-R232, the “MOUSE DSF_6xHIS-SUMO Tm Shift (° C.)” value was “D (“D” > 15° C.)”. Besides, the “HAQ_DSF_hSWAT Tm Shift (° C.)” value on hSTING-HAQ [2] is “D (“D” > 7° C.)”. For the same compound, at STING protein, the Emax is more than 50%.

On to `COc1c(Cl)ccc2c(=O)c3ccc(C4CCCCC4)cc3n(CC(=O)O)c12` [Compound 220], for which the IC50 on mSTING is 20 to 100 µM; at hSTING-WT, less than 20 µM; at hSTING-HAQ [1], 20 to 100 µM. For the same compound, on hSTING-R232, the “WT_DSF_hSWAT Tm Shift (° C.)” value was “D (“D” > 7° C.)”. The “HAQ_DSF_hSWAT Tm Shift (° C.)” value at hSTING-HAQ [2] was “D (“D” > 7° C.)”. In addition, the Emax on STING protein is more than 50%.

Take `O=C(O)Cn1c2cc(Nc3ccc(F)cc3F)ccc2c(=O)c2ccc(Cl)c(Cl)c21` [Compound 221]: the IC50 is less than 20 µM on hSTING-WT and 20 to 100 µM at hSTING-HAQ [1]. The “WT_DSF_hSWAT Tm Shift (° C.)” value at hSTING-R232 is reported as “D (“D” > 7° C.)”. Further, the “HAQ_DSF_hSWAT Tm Shift (° C.)” value at hSTING-HAQ [2] is recorded as “D (“D” > 7° C.)”. In addition, the Emax on STING protein was more than 50%.

As for `O=C(O)Cn1c2cc(-c3ccc(O)cc3)ccc2c(=O)c2ccc(Cl)c(Cl)c21` [Compound 223], the values for the IC50 at mSTING, on hSTING-WT and at hSTING-HAQ [1] were less than 20 µM, 20 to 100 µM and 20 to 100 µM, respectively. The “WT_DSF_hSWAT Tm Shift (° C.)” value on hSTING-R232 is “C (“C” = 2-7° C,)”. In addition, the “HAQ_DSF_hSWAT Tm Shift (° C.)” value at hSTING-HAQ [2] is on record as “D (“D” > 7° C.)”. Further, on STING protein, the Emax is less than 5%.

Broadly, the IC50 is the concentration that inhibits the measured activity by half. Low values mean greater potency in that assay, high ones weaker potency in that assay.
